Measured values taken from ChEMBL document CHEMBL3217615, “Novel 3,5-bis(arylidiene)-4-piperidone based monocarbonyl analogs of curcumin: anticancer activity evaluation and mode of action study” (2014).

How the values were obtained:
Format in all cases: functional
[1] = Growth inhibition of human OVCAR8 cells assessed as cell growth at 10^-5 M after 48 hrs by sulforhodamine B assay; details: OVCAR-8, 48 h, read-out: Activity
[2] = Growth inhibition of human OVCAR4 cells assessed as cell growth at 10^-5 M after 48 hrs by sulforhodamine B assay; details: OVCAR-4, 48 h, read-out: Activity
[3] = Growth inhibition of human OVCAR5 cells assessed as cell growth at 10^-5 M after 48 hrs by sulforhodamine B assay; details: OVCAR-5, 48 h, read-out: Activity
IGROV-1 = assay: Growth inhibition of human IGROV1 cells assessed as cell growth at 10^-5 M after 48 hrs by sulforhodamine B assay; details: IGROV-1, 48 h, read-out: Activity
[4] = Growth inhibition of human UACC62 cells assessed as cell growth at 10^-5 M after 48 hrs by sulforhodamine B assay; details: UACC-62, 48 h, read-out: Activity
SK-MEL-5 = assay: Growth inhibition of human SK-MEL-5 cells assessed as cell growth at 10^-5 M after 48 hrs by sulforhodamine B assay; details: SK-MEL-5, 48 h, read-out: Activity
SK-MEL-28 = assay: Growth inhibition of human SK-MEL-28 cells assessed as cell growth at 10^-5 M after 48 hrs by sulforhodamine B assay; details: SK-MEL-28, 48 h, read-out: Activity
M14 = assay: Growth inhibition of human M14 cells assessed as cell growth at 10^-5 M after 48 hrs by sulforhodamine B assay; details: M14, 48 h, read-out: Activity
MDA-MB-435 = assay: Growth inhibition of human MDA-MB-435 cells assessed as cell growth at 10^-5 M after 48 hrs by sulforhodamine B assay; details: MDA-MB-435, 48 h, read-out: Activity
[5] = Growth inhibition of human LOXIMVI cells assessed as cell growth at 10^-5 M after 48 hrs by sulforhodamine B assay; details: LOX IMVI, read-out: Activity
SNB-19 = assay: Growth inhibition of human SNB19 cells assessed as cell growth at 10^-5 M after 48 hrs by sulforhodamine B assay; details: SNB-19, 48 h, read-out: Activity
SF-268 = assay: Growth inhibition of human SF268 cells assessed as cell growth at 10^-5 M after 48 hrs by sulforhodamine B assay; details: SF-268, 48 h, read-out: Activity
[6] = Growth inhibition of human HCT15 cells assessed as cell growth at 10^-5 M after 48 hrs by sulforhodamine B assay; details: HCT-15, 48 h, read-out: Activity
COLO 205 = assay: Growth inhibition of human COLO205 cells assessed as cell growth at 10^-5 M after 48 hrs by sulforhodamine B assay; details: COLO 205, 48 h, read-out: Activity
NCI-H522 = assay: Growth inhibition of human NCI-H522 cells assessed as cell growth at 10^-5 M after 48 hrs by sulforhodamine B assay; details: NCI-H522, 48 h, read-out: Activity
NCI-H322M = assay: Growth inhibition of human NCI-H322M cells assessed as cell growth at 10^-5 M after 48 hrs by sulforhodamine B assay; details: read-out: Activity
NCI-H226 = assay: Growth inhibition of human NCI-H226 cells assessed as cell growth at 10^-5 M after 48 hrs by sulforhodamine B assay; details: NCI-H226, 48 h, read-out: Activity
[7] = Growth inhibition of human HOP92 cells assessed as cell growth at 10^-5 M after 48 hrs by sulforhodamine B assay; details: HOP-92, 48 h, read-out: Activity
HOP-62 = assay: Growth inhibition of human HOP62 cells assessed as cell growth at 10^-5 M after 48 hrs by sulforhodamine B assay; details: HOP-62, 48 h, read-out: Activity
SR = assay: Growth inhibition of human SR cells assessed as cell growth at 10^-5 M after 48 hrs by sulforhodamine B assay; details: read-out: Activity
RPMI-8226 = assay: Growth inhibition of human RPMI8226 cells assessed as cell growth at 10^-5 M after 48 hrs by sulforhodamine B assay; details: RPMI-8226, 48 h, read-out: Activity
HL-60(TB) = assay: Growth inhibition of human HL-60(TB) cells assessed as cell growth at 10^-5 M after 48 hrs by sulforhodamine B assay; details: HL-60, 48 h, read-out: Activity
K562 = assay: Growth inhibition of human K562 cells assessed as cell growth at 10^-5 M after 48 hrs by sulforhodamine B assay; details: K562, 48 h, read-out: Activity
CCRF-CEM = assay: Growth inhibition of human CCRF-CEM cells assessed as cell growth at 10^-5 M after 48 hrs by sulforhodamine B assay; details: read-out: Activity
MDA-MB-468 = assay: Growth inhibition of human MDA-MB-468 cells assessed as cell growth at 10^-5 M after 48 hrs by sulforhodamine B assay; details: MDA-MB-468, 48 h, read-out: Activity
T47D = assay: Growth inhibition of human T47D cells assessed as cell growth at 10^-5 M after 48 hrs by sulforhodamine B assay; details: read-out: Activity
[8] = Growth inhibition of human BT549 cells assessed as cell growth at 10^-5 M after 48 hrs by sulforhodamine B assay; details: BT-549, 48 h, read-out: Activity
[9] = Growth inhibition of human Hs 578T cells assessed as cell growth at 10^-5 M after 48 hrs by sulforhodamine B assay; details: read-out: Activity
MDA-MB-231 = assay: Growth inhibition of human MDA-MB-231 cells assessed as cell growth at 10^-5 M after 48 hrs by sulforhodamine B assay; details: MDA-MB-231, 48 h, read-out: Activity
MCF7 = assay: Growth inhibition of human MCF7 cells assessed as cell growth at 10^-5 M after 48 hrs by sulforhodamine B assay; details: MCF7, 48 h, read-out: Activity
DU-145 = assay: Growth inhibition of human DU145 cells assessed as cell growth at 10^-5 M after 48 hrs by sulforhodamine B assay; details: DU-145, 48 h, read-out: Activity
[10] = Growth inhibition of human UO31 cells assessed as cell growth at 10^-5 M after 48 hrs by sulforhodamine B assay; details: UO-31, 48 h, read-out: Activity
SN12C = assay: Growth inhibition of human SN12C cells assessed as cell growth at 10^-5 M after 48 hrs by sulforhodamine B assay; details: read-out: Activity
ACHN = assay: Growth inhibition of human ACHN cells assessed as cell growth at 10^-5 M after 48 hrs by sulforhodamine B assay; details: read-out: Activity
A498 = assay: Growth inhibition of human A498 cells assessed as cell growth at 10^-5 M after 48 hrs by sulforhodamine B assay; details: A498, 48 h, read-out: Activity
SK-OV-3 = assay: Growth inhibition of human SKOV3 cells assessed as cell growth at 10^-5 M after 48 hrs by sulforhodamine B assay; details: SK-OV-3, 48 h, read-out: Activity

Structure (SMILES) | growth at 10 µM [1] [%] | growth at 10 µM [2] [%] | growth at 10 µM [3] [%] | growth at 10 µM (IGROV-1) [%] | growth at 10 µM [4] [%] | growth at 10 µM (SK-MEL-5) [%] | growth at 10 µM (SK-MEL-28) [%] | growth at 10 µM (M14) [%] | growth at 10 µM (MDA-MB-435) [%] | growth at 10 µM [5] [%] | growth at 10 µM (SNB-19) [%] | growth at 10 µM (SF-268) [%] | growth at 10 µM [6] [%] | growth at 10 µM (COLO 205) [%] | growth at 10 µM (NCI-H522) [%] | growth at 10 µM (NCI-H322M) [%] | growth at 10 µM (NCI-H226) [%] | growth at 10 µM [7] [%] | growth at 10 µM (HOP-62) [%] | growth at 10 µM (SR) [%] | further results
O=C1/C(=C/c2c(Cl)cccc2Cl)CN(S(=O)(=O)c2ccccc2)C/C1=C\c1c(Cl)cccc1Cl | 77.3 | 84.6 | 103 | 100 | 60.5 | 85.3 | 88.1 | 66.3 | 72.7 | 78 | 92.7 | 78.6 | 62 | 92.4 | 72.5 | 85 | 110 | 54.5 | 100 | 52.7 | growth at 10 µM (RPMI-8226): 63.3%; growth at 10 µM (HL-60(TB)): 81%; growth at 10 µM (K562): 77.8%; growth at 10 µM (CCRF-CEM): 42.4%; growth at 10 µM (MDA-MB-468): 80.4%; growth at 10 µM (T47D): 88.8%; growth at 10 µM [8]: 89.3%; growth at 10 µM [9]: 93%; growth at 10 µM (MDA-MB-231): 71.2%; growth at 10 µM (MCF7): 48.5%; growth at 10 µM (DU-145): 85.8%; growth at 10 µM [10]: 73.7%; growth at 10 µM (SN12C): 86.3%; growth at 10 µM (ACHN): 76.3%; growth at 10 µM (A498): 91.6%; growth at 10 µM (SK-OV-3): 91.9%
Cc1ccc(S(=O)(=O)N2C/C(=C\c3c(Cl)cccc3Cl)C(=O)/C(=C/c3c(Cl)cccc3Cl)C2)cc1 | 79.6 | 85.3 | 103 | 104 | 69.5 | 85 | 101 | 79.1 | 93.5 | 79.4 | 95.7 | 83.6 | 80.7 | 110 | 88.6 | 93.5 | 98.1 | 73.5 | 94.5 | 71.1 | growth at 10 µM (RPMI-8226): 82.9%; growth at 10 µM (HL-60(TB)): 94.5%; growth at 10 µM (K562): 81.6%; growth at 10 µM (CCRF-CEM): 72.7%; growth at 10 µM (MDA-MB-468): 90.4%; growth at 10 µM (T47D): 94%; growth at 10 µM [8]: 101%; growth at 10 µM [9]: 101%; growth at 10 µM (MDA-MB-231): 64.3%; growth at 10 µM (MCF7): 64.5%; growth at 10 µM (DU-145): 96.8%; growth at 10 µM [10]: 72.5%; growth at 10 µM (SN12C): 85.6%; growth at 10 µM (ACHN): 84.2%; growth at 10 µM (A498): 109%; growth at 10 µM (SK-OV-3): 93.7%
O=C1/C(=C/c2ccc(Cl)cc2Cl)CN(S(=O)(=O)c2ccccc2)C/C1=C\c1ccc(Cl)cc1Cl | -9 | 8 | -12 | -39 | -79 | 47 | 27 | 17 | -48 | -58.7 | -39.1 | 4.96 | -23 | -38 | -51 | -29 | -62 | -25 | -2.25 | -11.6 | growth at 10 µM (RPMI-8226): -29%; growth at 10 µM (HL-60(TB)): -24%; growth at 10 µM (K562): 0.79%; growth at 10 µM (CCRF-CEM): -14%; growth at 10 µM (MDA-MB-468): -38%; growth at 10 µM (T47D): 7%; growth at 10 µM [8]: -72.8%; growth at 10 µM (MDA-MB-231): -52%; growth at 10 µM (MCF7): 12%; growth at 10 µM (DU-145): 4%; growth at 10 µM [10]: -63%; growth at 10 µM (SN12C): -47%; growth at 10 µM (ACHN): -24%; growth at 10 µM (A498): -27%; growth at 10 µM (SK-OV-3): 44%
